Legend:
Type in all cases: physicochemical
[1] = pKa measurement (Sirius T3, UV metric method); conditions: MeOH as solvent, Yasuda-Shedlovsky extrapolation, ionic strength 0.176M, 28.9° C., to be taken as reference (effective range pH 2-12)
Method: pKa. The pKa was measured by a Sirius pKa log P/D tester (model: T3) with a UV detector (UV metric method) using MeOH as solvent.
In addition, the pKa value of Compound (1) starting material was measured to be 1.68 by a Sirius pKa log P/D tester (model: T3) with a UV detector (UV metric method) using MeOH as solvent. The pKa value should be taken as reference because the effective pH range of UV metric method is pH 2-12.

Cohesion evaluation = test: Cohesion evaluation
From the text: Different options were explored to improve the cohesion property of the tablet, for example, by change of lactose and mannitol grades (standard grade in place of Spray Dried grade), using anhydrous lactose in place of monohydrate lactose Spray-Dried, using different ratios of lactose/mannitol, or using pregelatinized corn starch instead of mannitol, but only a decrease of tablet cohesion was observed.

Solid form screening = conditions: 96 solid form screening experiments
Method: A total of 96 solid form screening experiments were performed using different crystallization or solid transformation methods.

In the case of `CC(C)(C(=O)N1CCOc2c(C#N)cncc2C1)C(F)F` [Compound 1, 4-(3,3-difluoro-2,2-dimethyl-propanoyl)-3,5-dihydro-2H-pyrido[3,4-f][1,4]oxazepine-9-carbonitrile], the pKa [1] is reported as 1.68, the “cohesion property of the drug substance” value (Cohesion evaluation) is reported as “very low cohesion property” and the “crystal forms observed from screening” value (Solid form screening) is reported as “Only one crystal form”.

From US20240299412A1, “DRUG FORMULATIONS OF 4-(3,3-DIFLUORO-2,2-DIMETHYL-PROPANOYL) -3,5-DIHYDRO-2H-PYRIDO[3,4-f][1,4]OXAZEPINE-9-CARBONITRILE” (Genzyme Corporation, priority 2023, published 2024)
